Consider two substances from patent US20210330861A1, “ANTIMICROBIAL COATING COMPOSITIONS” (BIOCANT - CENTRO DE INOVAÇÃO EM BIOTECNOLOGIA, priority 2012, published 2021).

One data set concerns HUVEC. The data set is described as follows: Soluble CM peptide interaction with cells, MTT assay. As to conditions: 24 h contact with soluble peptide. The data set is classed as cell-based, human. The procedure: Two human cell types such as human endothelial umbilical vein cells (HUVEC) as a model for vascularized tissues and normal dermal human fibroblasts (NDHF) one of the most common cell type present in human connective tissue were used to evaluate the cytotoxicity induced by CM peptide immobilized surfaces. HUVECs (preferably, Lonza, Cat. Number CC-2517, Walkersville, Md., USA) were cultured using endothelial growth factor-2 media (EGM-2), bullet kit media (preferably, Lonza, Cat. Number CC-3156) for at least 24 h prior to further use. Passages below six were used for all experiments.
HUVEC and NDHF cells were cultured as previously mentioned and platted at a density of 4.2×10^3 cells/cm2 in 24-well plates. Cells were allowed to grow 24 h prior to any experiments performed. Different concentrations of CM peptide solutions (50, 30, 20, 10, 5, 2.5 and 1 μg/mL) were incubated with both cells for 24 hr to evaluate the cytotoxicity effect of CM peptides using MTT cell metabolic activity assay.
Initially cells were washed with warm phosphate buffer saline (PBS). […] Absorbance was measured at 540 nm with reference to 670 nm in a UV-visible spectrophotometer (SynergyMx from Biotek Instruments, Winooski, Vt., United States) (I don't understand by reference).
A general note: Formazan colour is commonly taken as a measure of viable cells.

The nature of data set [1]: Zeta potential of gold nanoparticles. The data set is classed as physicochemical. Particulars: after centrifugation and redispersion in HEPES, room temperature. The procedure:
The synthesized gold nanoparticle solutions were centrifuged at 14000 rpm followed by washing with mill-Q water to remove unreacted peptides and HEPES. The centrifuged gold nanoparticles were frozen and fridge dried at 223 K using . . . Thermogravimetric analysis (TGA) of peptide capped gold nanoparticles and gold nanoparticles synthesized without peptides was performed using over a temperature range of 30-600° C. at a heating rate of 10° C./min in presence of N2 gas. The binding of peptide on gold nanoparticle surface was analyzed, preferably by FTIR spectroscopy in ATR mode using JASCO spectrophotometer at 4 cm-1 resolutions with 64 scans. Zeta (ζ) potential of the synthesized gold nanoparticles after centrifugation and redispersion in HEPES were measured, preferably, using Brukerheaven instrument at room temperature.

The next data set concerns S. aureus. Kind of data set: Antimicrobial activity testing of peptide capped gold nanoparticles and peptide in bacterial suspension (colony count). As to conditions: 10 μg/mL, after 4 hr of incubation, 10% human serum. The data set is classed as cell-based. As to the method:
(§1) S. aureus and E. coli were grown at 37° C. and maintained on LB plates (preferably, Luria-Bertani broth with 1.5% agar). Bacteria were also grown in LB media for overnight at 37° C. and cell counts were quantified by OD 600 measurements. Different amounts of peptide capped gold nanoparticles, peptide (5-10 μg/mL) and HEPES reduced gold nanoparticles (10 μg/mL) were added into bacterial suspensions ([…]) in presence of 10% human serum and incubated for 4 h at 37° C. 100 μL aliquots were taken out from the respective suspensions at 2 h intervals and diluted in PBS buffer to give […] and plated on LB agar plates followed by incubation at 37° C. Colonies were counted after 24 h of incubation. In another experiments, citric acid reduced gold nanoparticles were functionalized with 1 mg/mL mPEG-thiol (5 kDa). Gold nanoparticles were synthesized using citric acid as described previously (11). PEG and CMC peptide coated gold nanoparticles were incubated with 10% human serum for 2 hr at 4° C. followed by centrifugation at 14000 rpm to discard free human serum. Similarly, to study protease degradation, CMC coated gold nanoparticles and bare CMC peptides were treated with 1 mg/mL trypsin (phosphate buffer pH 8) for 2 h at 37° C. After 2 h of reaction, the nanoparticle solution was subjected to centrifugation to remove trypsin. Antimicrobial test was performed with human serum and trypsin treated peptide capped gold nanoparticles against E. coli.

The subject of a further data set is E. coli. Described as above. The data set is classed as cell-based. As to the method:
as §1

Ends that are not written are not given here.

In the case of Cecropin-mellitin [soluble CM peptide], the “concentration at which negative influence on metabolic activity was also detected (MTT)” value with HUVEC came out at 1000 ng/mL.
As to “KWKLFKKIGAVLKVLC [CMC peptide, KWKLFKKIGAVLKVLC]”, in data set [1], the “ζ potential (mV)” value is “+23±1 mV”. The killing of bacteria entry is listed as “reduced activity” in the data set with S. aureus and “reduced activity” with E. coli (10 μg/mL, after 4 hr of incubation, 10% human serum). The “incubation time to kill bacteria” value with E. coli (absence of human serum (FIG. 9)) is on record as 60 min. Moreover, in the data set on E. coli (treated with 1 mg/mL trypsin for 2 h at 37° C.), the “antimicrobial activity after trypsin treatment” value is listed as “did not show any antimicrobial activity”.
